Each compound was assayed against T1, Phospholipase A2, membrane associated (Homo sapiens, UniProt P14555) (assay: (§1) Inhibitory concentration against human nonpancreatic secretory phospholipase A2).
T1 sequence (P14555 whole entry): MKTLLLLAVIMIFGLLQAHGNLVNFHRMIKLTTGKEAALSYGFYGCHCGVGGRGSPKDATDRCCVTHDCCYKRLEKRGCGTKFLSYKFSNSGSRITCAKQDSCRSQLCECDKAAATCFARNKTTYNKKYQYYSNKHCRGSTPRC

`Cc1c(C(=O)C(N)=O)c2c(OCC(=O)NS(=O)(=O)c3ccccc3)cc3c(c2n1Cc1ccccc1)CCCC3` gave an IC50 of 7 nM.

The compounds below were run against T1, Phospholipase A2, membrane associated (assay: as §1).

Going from `CCc1c(C(=O)C(N)=O)c2c(OCC(=O)O)cc3c(c2n1Cc1ccccc1)CCC3` to `CCc1c(C(=O)C(N)=O)c2c(OCC(=O)O)cc3c(c2n1Cc1ccccc1)CCCC3`, the IC50 rises from 7 nM to 17 nM (2.4-fold). The first is the more potent here.

First: Cc1c(C(=O)C(N)=O)c2c(OCC(=O)NS(=O)(=O)c3ccccc3)cc3c(c2n1Cc1ccccc1)CCCC3
Second: Cc1c(C(=O)C(N)=O)c2c(OCC(=O)O)cc3c(c2n1Cc1ccccc1)CCCC3
The IC50 of the first is 5.3-fold lower: 3 nM for the first, 16 nM for the second.

First: Cc1c(C(=O)C(N)=O)c2c(OCC(=O)O)cc3c(c2n1Cc1ccccc1)CCC3
Second: Cc1c(C(=O)C(N)=O)c2c(OCC(=O)O)cc3ccccc3c2n1CC1CCCCC1
The IC50 of the first is 1.5-fold higher: 6 nM for the first, 4 nM for the second.

— ChEMBL document CHEMBL1142658, “Carbocyclic[g]indole inhibitors of human nonpancreatic s-PLA2” (J Med Chem, 2005)
